{"source": "patent US10934070B2", "about": "“Anti-scalping pharmaceutical packaging film” (BEMIS COMPANY, INC., priority 2014, dated 2021)", "origin": "cited, not measured here", "settings": "at 25° C.", "data": [{"smiles": "CN1CCCC1c1cccnc1", "note": "(stereo not shown) [Nicotine]", "values": [{"measurement": "vapor pressure", "result": 5.65, "unit": "Pa"}]}]}
